Common to all, as to assay: MIC, broth microdilution (NCCLS)
A general note: Dilution methods test growth across graded concentrations, often in twofold steps.

In assay [1] the test system is Streptococcus pneumoniae Stpn_297-749. The assay is classed as cell-based. The arrangement: MIC, strain ID N: unit not given here. In a few lines:
(§1)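 Broth microdilution per NCCLS in cation-adjusted Mueller-Hinton broth, with 2-5% lysed horse blood added for S. pneumoniae. Inoculum 3×10^5–7×10^5 CFU/ml, 2-fold drug dilutions, 18-24 h at 35° C; S. pneumoniae under 5-10% CO2, others ambient air. MIC = lowest concentration preventing visible growth.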

The subject of assay [2] is Streptococcus pneumoniae Stpn_49619. The format is cell-based. The arrangement: MIC, strain ID M: unit not given beside the values. Put shortly: as §1
Assay [3] has as its system Streptococcus pneumoniae Stpn_Mef 5654. The format is cell-based. The following applies: in µg/mL (unit assumed). Put shortly:
as §1

The subject of assay [4] is S. pneumoniae Stpn_Erm 6849. The assay is classed as cell-based, Streptococcus pneumoniae. The following applies: for MIC: Table 7, Strain ID I (Table 6): S. pneumoniae Stpn_Erm 6849, unit assumed. Put shortly:
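Lowest drug concentration giving no visible growth after 18-24 hours at 35° C. under 5-10% CO2 was taken as MIC. Twofold serial dilutions in CAMHB plus 2-5% lysed horse blood, final inoculum 3×10^5–7×10^5 CFU/ml, per NCCLS microdilution.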

For assay [5], the system named is Streptococcus pneumoniae Stpn_280-962. The assay is classed as cell-based. Set-up: MIC, strain ID O: unit not given beside the values. Put shortly:
as §1

Assay [6] deals with Streptococcus pyogenes Stpy_8668. The format is cell-based. Set-up: MIC, strain ID G: unit not given beside the values. In a few lines:
as §1

For assay [7], the system named is Staphylococcus epidermidis Step_f50654. The assay is classed as cell-based. The following applies: in µg/mL (unit assumed). Put shortly:
as §1

Assay [8] relates to Enterococcus faecalis Enfa_29212. The format is cell-based. The following applies: in µg/mL (unit assumed). Put shortly: as §1
Assay [9] concerns Staphylococcus aureus Stau_29213. The assay is classed as cell-based. The following applies: in µg/mL (unit assumed). In a few lines:
as §1

Assay [10] deals with Staphylococcus epidermidis Step_14990. The format is cell-based. The following applies: in µg/mL (unit assumed). Put shortly: as §1
Assay [11] concerns Haemophilus influenzae Hain_49247. The format is cell-based. The conditions noted are these: unit assumed.
Assay [12] deals with Streptococcus pneumoniae Stpn_Erm S 4297. The format is cell-based. The conditions noted are these: Table 7, Strain ID J (Table 6): S. pneumoniae Stpn_Erm S 4297. Put shortly:
as §1

Assay [13] concerns Streptococcus pneumoniae Stpn_Mef S 3427. The format is cell-based. The conditions noted are these: in µg/mL (unit assumed). Put shortly: as §1
Assay [14] concerns Staphylococcus aureus Stau_33591. The format is cell-based. The conditions noted are these: unit assumed. How it is done: (§2) Strains. The bacterial isolates listed in Table 8 were cultivated from −70° C. frozen stocks by two consecutive overnight passages (P1, P2) at 35° C. on 5% blood agar (Remel, Lenexa, Kans.). Chocolate agar (Remel) is used for Haemophilus influenzae. H. influenzae and Streptococcus pneumoniae are incubated in 5-10% CO2
(§3) Drug Stock Preparation. To determine the amount of solvent to be used to give the desired final concentration, the formula “weight obtained in mg/final concentration in mg/ml” will be used. It will give the amount of solvent in ml needed to be added to give the desired concentration. For example, if 2.5 mg/ml is the desired concentration and the weight of compound is 13.7 mg, then the amount of solvent to be added is […]. Methanol is used as the solvent to dissolve the test compounds. Further dilution of stock is done in sterile, deionized water. Drug stocks are kept frozen at −70° C., protected from light.
(§4) Susceptibility Testing. MICs are determined by the broth microdilution method in accordance with the NCCLS guidelines. In brief, organism suspensions are adjusted to a 0.5 McFarland standard to yield a final inoculum between 3×10^5 and 7×10^5 CFU/ml. Drug dilutions and inocula are made in sterile, cation adjusted Mueller-Hinton Broth (CAMHB) (Remel) for all but S. pneumoniae [CAMHB with 2-5% lysed horse blood (Remel)] and H. influenzae [Haemophilus Test Medium (Remel)]. An inoculum volume of 100 μl is added to wells containing 100 μl of broth with 2-fold serial dilutions of drug. All inoculated microdilution trays are incubated in ambient air at 35° C. for 18-24 hours, except for S. pneumoniae, and H. influenzae (both at 5-10% CO2).
(§5) Following appropriate incubation, the MIC is determined and the MIC is defined as the lowest concentration of the drug that prevented visible growth. […] Antibacterial activity of representative compounds of the invention were compared against telitromycin.

Assay [15] has as its system Haemophilus influenzae Hain_960820544-3. The assay is classed as cell-based. The conditions noted are these: Table 10, Strain ID J (Table 8): Haemophilus influenzae Hain_960820544-3; in µg/mL (unit assumed). How it is done: as §2, §3, §4, §5
Assay [16] relates to Enterococcus faecalis Enfa_bc 11148-2. The assay is classed as cell-based. The conditions noted are these: Table 10, Strain ID F (Table 8): Enterococcus faecalis Enfa_bc 11148-2; in µg/mL (unit assumed). How it is done:
as §2, §3, §4, §5

Assay [17] has as its system Haemophilus influenzae Hain_960730503-3. The format is cell-based. The following applies: Table 10, Strain ID I (Table 8): Haemophilus influenzae Hain_960730503-3; in µg/mL (unit assumed). On the procedure: as §2, §3, §4, §5
The subject of assay [18] is Haemophilus influenzae Hain_953460299-3. The assay is classed as cell-based. The following applies: Table 10, Strain ID K (Table 8): Haemophilus influenzae Hain_953460299-3; in µg/mL (unit assumed). On the procedure:
as §2, §3, §4, §5

The subject of assay [19] is Haemophilus influenzae Hain_2762. The assay is classed as cell-based. The conditions noted are these: Table 10, Strain ID L (Table 8): Haemophilus influenzae Hain_2762; in µg/mL (unit assumed). How it is done:
as §2, §3, §4, §5

[20] abbreviates: Table 7, Strain ID G (Table 6): S. pneumoniae Stpn_297-749.
Setting [21] is: Table 7, Strain ID F (Table 6): S. pneumoniae Stpn_49619.
[22] abbreviates: Table 7, Strain ID K (Table 6): S. pneumoniae Stpn_Mef 5654.
[23] abbreviates: Table 7, Strain ID H (Table 6): S. pneumoniae Stpn_280-962.
Where [24] appears, read: Table 7, Strain ID E (Table 6): S. pyogenes Stpy_8668.
Where [25] appears, read: Table 7, Strain ID C (Table 6): S. epidermidis Step_f50654.
The mark [26] stands for this setting: Table 7, Strain ID D (Table 6): E. faecalis Enfa_29212.
Setting [27] is: Table 7, Strain ID A (Table 6): S. aureus Stau_29213.
The mark [28] stands for this setting: Table 7, Strain ID B (Table 6): S. epidermidis Step_14990.
The mark [29] stands for this setting: Table 7, Strain ID M (Table 6): H. influenzae Hain_49247.
Setting [30] is: Table 7, Strain ID L (Table 6): S. pneumoniae Stpn_Mef S 3427.

In brackets after ≈: the same amount, converted by molar mass.

`C=C[C@]12OC(=O)N(CCCCn3cnc(-c4cccnc4)c3)[C@@H]1[C@@H](C)C(=O)[C@H](C)C[C@](C)(OC)[C@H](OC1O[C@H](C)C[C@H](N(C)C)[C@H]1O)[C@@H](C)C(=O)[C@@H](C)C(=O)O[C@@H]2CC` (stereo partly drawn) [Example 48, (3aS,4R,7R,9R,10R,11R,13R,15R,15aR)-4-ETHYL-11-METHOXY-7,9,11,13,15-PENTAMETHYL-2,6,8,14-TETRAOXO-1-[4-(4-PYRIDIN-3-YL-1H-IMIDAZOL-1-YL)BUTYL]-3a-VINYLTETRADECAHYDRO-1H-OXACYCLOTETRADECINO[4,3-D][1,3]OXAZOL-10-YL-3,4,6-TRIDEOXY-3-(DIMETHYLAMINO)-D-XYLO-HEXOPYRANOSIDE]: the MIC result was “=0.05” in assay [1] (setting [20]); “=0.05” in assay [2] (setting [21]); 0.78 in assay [3] (setting [22]); 0.4 µg/mL (≈ 0.485 µM) in [4]; “=0.05” in assay [5] (setting [23]); “=0.05” in assay [6] (setting [24]). Moreover, the MIC in assay [7] (setting [25]) was 0.2; in assay [8] (setting [26]), 0.1; in [9] (setting [27]), 0.2; in assay [10] (setting [28]) it was 0.2; in assay [11] (setting [29]), 3.13 µg/mL (≈ 3.8 µM); in assay [12] it was “=0.05”. Further, the MIC in [13] (setting [30]) is 0.1.
Take `C/C=C\[C@]12OC(=O)N(CCCCn3cnc(-c4cccnc4)c3)[C@@H]1[C@@H](C)C(=O)[C@H](C)C[C@](C)(OC)[C@H](OC1O[C@H](C)C[C@H](N(C)C)[C@H]1O)[C@@H](C)C(=O)[C@](C)(F)C(=O)O[C@@H]2CC` (stereo partly drawn) [Example 66, (3aS,4R,7S,9R,10R,11S,13R,15R,15aR)-4-ethyl-7-fluoro-11-methoxy-7,9,11,13,15-pentamethyl-2,6,8,14-tetraoxo-3a-[(1Z)-prop-1-enyl]-1-[4-(4-pyridin-3-yl-1H-imidazol-1-yl)butyl]tetradecahydro-1H-oxacyclotetradecino[4,3-d][1,3]oxazol-10-yl-3,4,6-trideoxy-3-(dimethylamino)-D-xylo-hexopyranoside]: the MIC entry is “=0.05” in assay [1] (setting [20]); “=0.05” in assay [2] (setting [21]); 0.4 in assay [3] (setting [22]); 0.2 µg/mL (≈ 0.234 µM) in assay [4]; “=0.05” in assay [5] (setting [23]); “=0.05” in [6] (setting [24]). For the same molecule, the MIC in assay [7] (setting [25]) is 0.2; in [8] (setting [26]), “.01”; in assay [9] (setting [27]) it was 0.2; in [10] (setting [28]), 0.2; in assay [11] (setting [29]), 6.25 µg/mL (≈ 7.3 µM); in assay [12] (unit assumed), 0.1 µg/mL (≈ 0.117 µM). The MIC in [13] (setting [30]) is 0.1.
With `C=C[C@]12OC(=O)N(CCCCn3cnc(-c4ccc(N(C)C)nc4)c3)[C@@H]1[C@@H](C)C(=O)[C@H](C)C[C@](C)(OC)[C@H](OC1O[C@H](C)C[C@H](N(C)C)[C@H]1O)[C@@H](C)C(=O)[C@@H](C)C(=O)O[C@@H]2CC` (stereo partly drawn) [XXIV], the MIC result in [1] (Table 10, Strain ID N (Table 8): Streptococcus pneumoniae Stpn_297-749) was “=0.05”; in [2] (Table 10, Strain ID M (Table 8): Streptococcus pneumoniae Stpn_49619) it was “=0.05”; in [14] (Table 10, Strain ID B (Table 8): Staphylococcus aureus Stau_33591), above 50 µg/mL; in [15], 6.25; in assay [16] it was 0.78; in assay [17], 12.5. In addition, the MIC in [18] is reported as 12.5; in assay [19], 1.56; in assay [3] (Table 10, Strain ID P (Table 8): Streptococcus pneumoniae Stpn_Mef 5654) it was 1.56; in assay [5] (Table 10, Strain ID O (Table 8): Streptococcus pneumoniae Stpn_280-962), “=0.05”; in [6] (Table 10, Strain ID G (Table 8): Streptococcus pyogenes Stpy_8668) it was “=0.05”; in [7] (Table 10, Strain ID D (Table 8): Staphylococcus epidermidis Step_f50654), 0.2. Further, the MIC in assay [8] (Table 10, Strain ID E (Table 8): Enterococcus faecalis Enfa_29212) is 0.1; in [9] (Table 10, Strain ID A (Table 8): Staphylococcus aureus Stau_29213), 0.2; in assay [10] (Table 10, Strain ID C (Table 8): Staphylococcus epidermidis Step_14990) it was 0.2; in assay [11] (Table 10, Strain ID H (Table 8): Haemophilus influenzae Hain_49247), 12.5 µg/mL (≈ 14.4 µM); in assay [13] (Table 10, Strain ID Q (Table 8): Streptococcus pneumoniae Stpn_Mef S 3427) it was 0.4.
On to `C#C[C@]12OC(=O)N(CCCCn3cnc(-c4ccc(C)nc4)c3)[C@@H]1[C@@H](C)C(=O)[C@H](C)C[C@](C)(OC)[C@H](OC1O[C@H](C)C[C@H](N(C)C)[C@H]1O)[C@@H](C)C(=O)[C@@H](C)C(=O)O[C@@H]2CC` (stereo partly drawn) [XXXIII], for which, in [1] (strain ID N, broth microdilution), the “MIC, strain ID N” value is “=0.05”. Further, the “MIC, strain ID M” value in [2] (strain ID M, broth microdilution) is recorded as “=0.05”. For the same molecule, in assay [14] (strain ID B, broth microdilution), the MIC, strain ID B is above 50 µg/mL. For the same molecule, the “MIC, strain ID P” value in [4] (strain ID P, broth microdilution, in µg/mL (unit assumed)) came out at 1.56. The “MIC, strain ID O” value in [5] (strain ID O, broth microdilution) is “=0.05”. In addition, the “MIC, strain ID G” value in assay [6] (strain ID G, broth microdilution) is on record as “=0.05”. The “MIC, strain ID E” value in [8] (strain ID E, broth microdilution) turned out to be 0.1. The “MIC, strain ID C” value in assay [10] (strain ID C, broth microdilution) came out at 0.2.

For the origin of these results see patent publication US7332476B2, “Pyridyl substituted ketolide antibiotics” (Novartis AG, priority 2003, dated 2008).
